Results as given in US10508085B2, “Compounds and methods for IDO and TDO modulation, and indications therefor” (Plexxikon Inc., priority 2016, dated 2019).
Where two headings read alike, the source gives them in different places.

How the values were obtained:
[1] = target: T1, Human Indoleamine 2,3-dioxygenase (IDO) (Homo sapiens, UniProt P14902); experiment: Human IDO enzymatic assay (kynurenine level); assay type: biochemical; settings: 6 nM IDO, 10 μM L-Trp; geometric mean; read-out: IDO1 GMean: IC50 (μM) (Biochemical Assay)
T1 construct: His tag (N); made in house; host or cells: E. coli
T1 sequence (P14902 whole entry): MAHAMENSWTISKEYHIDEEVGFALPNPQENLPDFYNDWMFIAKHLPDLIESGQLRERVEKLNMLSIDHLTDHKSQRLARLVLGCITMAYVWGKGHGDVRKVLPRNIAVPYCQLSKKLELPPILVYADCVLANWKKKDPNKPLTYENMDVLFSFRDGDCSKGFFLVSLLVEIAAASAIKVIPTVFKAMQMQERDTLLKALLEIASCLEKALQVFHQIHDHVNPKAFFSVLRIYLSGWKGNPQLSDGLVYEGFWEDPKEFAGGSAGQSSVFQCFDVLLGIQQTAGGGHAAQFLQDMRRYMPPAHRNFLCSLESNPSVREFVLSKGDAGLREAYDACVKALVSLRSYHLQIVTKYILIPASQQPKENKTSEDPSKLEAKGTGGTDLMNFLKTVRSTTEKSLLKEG
Outline: (§1)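 Reactions were stopped with TCA, converting N-formylkynurenine to kynurenine for quantitation, with IC50 by nonlinear regression. IDO: 6 nM enzyme, 10 μM L-Trp, 20 min RT. TDO: 1 nM enzyme, 350 μM L-Trp, 70 min RT, both in pH 6.5 buffer.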

[2] = target: T2, Human Tryptophan 2,3-dioxygenase (TDO) (Homo sapiens, UniProt P48775); experiment: Human TDO enzymatic assay (kynurenine level); assay type: biochemical; settings: 1 nM TDO, 350 μM L-Trp; geometric mean; read-out: TDO GMean: IC50 (μM) (Biochemical Assay)
T2 construct: His tag (N); made in house; host or cells: E. coli
T2 sequence (P48775 whole entry): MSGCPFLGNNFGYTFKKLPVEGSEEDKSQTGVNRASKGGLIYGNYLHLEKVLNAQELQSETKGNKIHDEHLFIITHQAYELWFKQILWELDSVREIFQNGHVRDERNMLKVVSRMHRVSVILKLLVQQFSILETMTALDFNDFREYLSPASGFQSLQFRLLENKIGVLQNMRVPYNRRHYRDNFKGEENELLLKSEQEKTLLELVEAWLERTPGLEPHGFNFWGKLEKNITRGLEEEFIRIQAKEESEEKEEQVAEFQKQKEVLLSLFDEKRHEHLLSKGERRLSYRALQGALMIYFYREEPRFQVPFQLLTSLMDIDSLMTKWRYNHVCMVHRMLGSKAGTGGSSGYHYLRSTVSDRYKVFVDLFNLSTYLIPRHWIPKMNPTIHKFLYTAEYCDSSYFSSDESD
Outline: as §1

[3] = target: T3, human IDO (IDO1-expressing HEK293 cells) (Homo sapiens, UniProt P14902); experiment: Cell based kynurenine assay, IDO1-expressing HEK293 cell clones; settings: IDO1-expressing HEK293 cells, geometric mean, read-out: HEK293 IDO1 Kynurenine GMean IC50 (μM) (Cellular Assay)
T3 construct: expressed in transfected cells
T3 sequence (P14902 whole entry): as the sequence (P14902 whole entry) above
Outline: (§2)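 Kynurenine in culture supernatant read after 24 h compound exposure of HEK293 cells stably expressing human IDO1 or TDO. IC50 from nonlinear regression of % inhibition relative to 0.2% DMSO cell (high) and media-only (low) controls.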

[4] = target: T4, human TDO (TDO-expressing HEK293 cells) (Homo sapiens, UniProt P48775); experiment: Cell based kynurenine assay, TDO-expressing HEK293 cell clones; settings: TDO-expressing HEK293 cells, geometric mean, read-out: HEK293 TDO Kynurenine GMean IC50 (μM) (Cellular Assay)
T4 construct: expressed in transfected cells
T4 sequence (P48775 whole entry): as the sequence (P48775 whole entry) above
Outline: as §2

Measured: IC50

CC(C)(C(O)c1c(F)c(Cl)cc2cn[nH]c12)[C@H]1C[C@H]2CC[C@@H](C1)N2S(C)(=O)=O (stereo partly drawn) [Compound P-0285, 1-(5-chloro-6-fluoro-1H-indazol-7-yl)-2-methyl-2-((1R,3r,5S)-8-(methylsulfonyl)-8-azabicyclo[3.2.1]octan-3-yl)propan-1-ol]
0.0001 to 10 µM: [1] | [2] | [3]; 24 hours incubation | [4]; 24 hours incubation

CNC(=O)N1CCC(C2(C(O)c3c(F)c(Cl)cc4cn[nH]c34)CC2)CC1 (centres unmarked) [Compound P-0162, 4-(1-((5-chloro-6-fluoro-1H-indazol-7-yl)(hydroxy)methyl)cyclopropyl)-N-methylpiperidine-1-carboxamide]
0.0001 to 10 µM: [1] | [2] | [3]; 24 hours incubation | [4]; 24 hours incubation

CS(=O)(=O)N1C[C@H]2CC[C@@H](C1)[C@@H]2C(F)(F)C(O)c1cc(Cl)cc2cn[nH]c12 (stereo partly drawn) [Compound P-0132, 1-(5-chloro-1H-indazol-7-yl)-2,2-difluoro-2-((1R,5S,8r)-3-(methylsulfonyl)-3-azabicyclo[3.2.l]octan-8-yl)ethan-l-ol]
0.0001 to 10 µM: [1] | [2] | [3]; 24 hours incubation | [4]; 24 hours incubation

CC1(C)OC(C)(C)C12CC(O)(c1cc(Cl)cc3cn[nH]c13)C2 [Compound P-0243, 6-(5-chloro-1H-indazol-7-yl)-1,1,3,3-tetramethyl-2-oxaspiro[3.3]heptan-6-ol]
0.0001 to 10 µM: [1] | [2] | [3]; 24 hours incubation | [4]; 24 hours incubation

CC(C)(C1CCN(C(=O)CN2CCOCC2)CC1)[C@H](O)c1cc(Cl)cc2cn[nH]c12 [Compound P-0501, (S)-1-(4-(1-(5-chloro-1H-indazol-7-yl)-1-hydroxy-2-methylpropan-2-yl)piperidin-1-yl)-2-morpholinoethan-1-one]
0.0001 to 10 µM: [1] | [2] | [3]; 24 hours | [4]; 24 hours

CCS(=O)(=O)N1CCC(C(F)(F)C(O)c2cc(Cl)cc3cn[nH]c23)CC1 (centres unmarked) [Compound P-0276, 1-(5-chloro-1H-indazol-7-yl)-2-(1-(ethylsulfonyl)piperidin-4-yl)-2,2-difluoroethan-1-ol]
0.0001 to 10 µM: [1] | [2] | [3]; 24 hours incubation | [4]; 24 hours incubation

CC(C)(C1CCN(C(=O)Nc2cccnc2)CC1)[C@H](O)c1cc(Cl)cc2cn[nH]c12 [Compound P-0554, (S)-4-(1-(5-chloro-1H-indazol-7-yl)-1-hydroxy-2-methylpropan-2-yl)-N-(pyridin-3-yl)piperidine-1-carboxamide]
0.0001 to 10 µM: [1] | [2] | [3]; 24 hours | [4]; 24 hours

CNC(=O)N1CCC(C(C)(C)[C@@H](O)c2cc(Cl)cc3cn[nH]c23)CC1 [Compound P-0427, (R)-4-(1-(5-chloro-1H-indazol-7-yl)-1-hydroxy-2-methylpropan-2-yl)-N-methylpiperidine-1-carboxamide]
0.0001 to 10 µM: [1] | [2] | [3]; 24 hours | [4]; 24 hours

N#Cc1ccc(NC(=O)N2CCC(C(F)(F)C(O)c3cc(Cl)cc4cn[nH]c34)CC2)cc1 (centres unmarked) [Compound P-0483, 4-(2-(5-chloro-1H-indazol-7-yl)-1,1-difluoro-2-hydroxyethyl)-N-(4-cyanophenyl) piperidine-1-carboxamide]
0.0001 to 10 µM: [1] | [2] | [3]; 24 hours | [4]; 24 hours

CC(=O)N1C[C@H]2CC[C@@H](C1)[C@@H]2C(F)(F)C(O)c1c(F)c(Cl)cc2cn[nH]c12 (stereo partly drawn) [Compound P-0139, 1-((1R,5S,8r)-8-(2-(5-chloro-6-fluoro-1H-indazol-7-yl)-1,1-difluoro-2-hydroxyethyl)-3-azabicyclo[3.2.l]octan-3-yl)ethan-l-one]
0.0001 to 10 µM: [1] | [2] | [3]; 24 hours incubation | [4]; 24 hours incubation

CC(C)(C1CCN(C(=O)Nc2cccs2)CC1)C(O)c1cc(Cl)cc2cn[nH]c12 (centres unmarked) [Compound P-0470, 4-(1-(5-chloro-1H-indazol-7-yl)-1-hydroxy-2-methylpropan-2-yl)-N-(thiophen-2-yl)piperidine-1-carboxamide]
0.0001 to 10 µM: [1] | [2] | [3]; 24 hours | [4]; 24 hours
